Experimental data reported in patent US9896441B2 (Lycera Corporation, priority 2014, dated 2018).

Experiments:
Gal4-RORγ-LBD = molecular target: T1, Gal4-RORγ-LBD (Homo sapiens, UniProt P51449); assay: Gal4-RORγ Luciferase Reporter Assay in HEK-293T Cells; type: cell-based; conditions: HEK-293 cells, luciferase reporter, in presence of ursolic acid; for Gal4-RORγ Assay Max Response: maximum response
T1 construct: expressed in transfected cells
T1 sequence (P51449 269-508 limits assumed): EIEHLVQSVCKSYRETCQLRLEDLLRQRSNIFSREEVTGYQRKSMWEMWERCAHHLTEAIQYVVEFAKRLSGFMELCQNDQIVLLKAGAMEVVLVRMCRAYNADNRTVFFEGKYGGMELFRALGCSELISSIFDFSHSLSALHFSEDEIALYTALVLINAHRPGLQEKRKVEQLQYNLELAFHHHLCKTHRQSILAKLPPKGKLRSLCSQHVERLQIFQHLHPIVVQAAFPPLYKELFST
Procedure, shortened: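 HEK-293 cells were co-transfected with Gal4-RORγ-LBD and a Gal4-luciferase reporter, then exposed overnight at 37 °C to compounds with […] ursolic acid present (0.2% DMSO). Luminescence was read with One-Glo after 10 min at RT, untreated signal was set as 100, and Max Response was taken as the upper plateau of a 4-parameter logistic fit.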

RORγ-LBD = molecular target: T2, RORγ-LBD (Homo sapiens, UniProt P51449); assay: RORγ-Ligand Binding Domain (LBD) TR-FRET Assay; type: biochemical; conditions: RORγ-LBD TR-FRET assay; for TR-FRET Assay Max Response: maximum response;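 for TR-FRET Assay Max Response: 665/615 nm signal ratio set to 100 without ursolic acid or test compound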
T2 construct: made in house; host or cells: SF9 cells (baculovirus); used as diluted lysate
T2 sequence (P51449 269-508 limits assumed): T1 sequence (P51449 269-508 limits assumed)
Procedure, shortened: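 SF9 lysate containing His-RORγ-LBD, ~3 nM final; coactivator peptide biotin-SRC1 LXXLL, 200 nM final; ursolic acid 2 μM final; DMSO 1% final; Tris pH 7.0 buffer with KCl, EDTA, DTT, BSA. TR-FRET format.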

Compound: COC(=O)c1ccc(C(=O)NC[C@H]2CN(S(=O)(=O)c3ccc(F)c(OC)c3)c3cc(/C=C(\C)c4c(F)cccc4Cl)ccc3O2)cc1 [Example 133, Methyl (S,E)-4-(((6-(2-(2-chloro-6-fluorophenyl)prop-1-en-1-yl)-4-((4-fluoro-3-methoxyphenyl)sulfonyl)-3,4-dihydro-2H-benzo[b][1,4]oxazin-2-yl)methyl)carbamoyl)benzoate]
- EC50 (Gal4-RORγ-LBD): < 500 nM
- Gal4-RORγ Assay Max Response (Gal4-RORγ-LBD): * (a value in the range of 30 to 90)
- EC50 (RORγ-LBD): < 500 nM
- TR-FRET Assay Max Response (RORγ-LBD): **** (a value greater than 200)

Compound: COc1cc(S(=O)(=O)N2C[C@H](CNC(=O)c3ccc(C(=O)O)cc3)Oc3ccc(/C=C(\C)c4c(F)cccc4Cl)cc32)ccc1F [Example 134, (S,E)-4-(((6-(2-(2-Chloro-6-fluorophenyl)prop-1-en-1-yl)-4-((4-fluoro-3-methoxyphenyl)sulfonyl)-3,4-dihydro-2H-benzo[b][1,4]oxazin-2-yl)methyl)carbamoyl)benzoic acid]
- EC50 (Gal4-RORγ-LBD): < 500 nM
- Gal4-RORγ Assay Max Response (Gal4-RORγ-LBD): *** (a value in the range of greater than 150 to 200)
- EC50 (RORγ-LBD): < 500 nM
- TR-FRET Assay Max Response (RORγ-LBD): **** (a value greater than 200)

Compound: COc1cc(S(=O)(=O)N2C[C@H](CNC(=O)c3cccc(C(=O)O)c3)Oc3ccc(/C=C(\C)c4c(F)cccc4Cl)cc32)ccc1F [Example 135A, (S,E)-3-(((6-(2-(2-chloro-6-fluorophenyl)prop-1-en-1-yl)-4-((4-fluoro-3-methoxyphenyl)sulfonyl)-3,4-dihydro-2H-benzo[b][1,4]oxazin-2-yl)methyl)carbamoyl)benzoic acid]
- EC50 (Gal4-RORγ-LBD): 500 to 5000 nM
- Gal4-RORγ Assay Max Response (Gal4-RORγ-LBD): * (a value in the range of 30 to 90)
- EC50 (RORγ-LBD): < 500 nM
- TR-FRET Assay Max Response (RORγ-LBD): *** (a value in the range of greater than 150 to 200)

Compound: COc1cc(S(=O)(=O)N2C[C@H](CNC(=O)C(=O)O)Oc3ccc(/C=C(\C)c4c(F)cccc4Cl)cc32)ccc1F [Example 135B, (S,E)-2-(((6-(2-(2-chloro-6-fluorophenyl)prop-1-en-1-yl)-4-((4-fluoro-3-methoxyphenyl)sulfonyl)-3,4-dihydro-2H-benzo[b][1,4]oxazin-2-yl)methyl)amino)-2-oxoacetic acid]
- EC50 (Gal4-RORγ-LBD): > 10000 nM
- EC50 (RORγ-LBD): < 500 nM
- TR-FRET Assay Max Response (RORγ-LBD): **** (a value greater than 200)

Compound: COc1cc(S(=O)(=O)N2C[C@H](CNC(=O)[C@H]3CC[C@H](C(=O)O)CC3)Oc3ccc(/C=C(\C)c4c(F)cccc4Cl)cc32)ccc1F [Example 135C, (1S,4r)-4-((((S)-6-((E)-2-(2-chloro-6-fluoro-phenyl)prop-1-en-1-yl)-4-((4-fluoro-3-methoxy-phenyl)sulfonyl)-3,4-dihydro-2H-benzo[b][1,4]oxazin-2-yl)methyl)carbamoyl)-cyclohexane-1-carboxylic acid]
- EC50 (Gal4-RORγ-LBD): 500 to 5000 nM
- Gal4-RORγ Assay Max Response (Gal4-RORγ-LBD): * (a value in the range of 30 to 90)
- EC50 (RORγ-LBD): < 500 nM
- TR-FRET Assay Max Response (RORγ-LBD): *** (a value in the range of greater than 150 to 200)

Compound: COc1cc(S(=O)(=O)N2c3cc(/C=C/c4c(F)cccc4Cl)ccc3O[C@@H](CO)[C@H]2C)ccc1F [Example 136, ((2R,3R)-6-((E)-2-Chloro-6-fluorostyryl)-4-((4-fluoro-3-methoxyphenyl)sulfonyl)-3-methyl-3,4-dihydro-2H-benzo[b][1,4]oxazin-2-yl)methanol]
- EC50 (Gal4-RORγ-LBD): < 500 nM
- Gal4-RORγ Assay Max Response (Gal4-RORγ-LBD): ** (a value in the range of greater than 90 to 150)
- EC50 (RORγ-LBD): < 500 nM
- TR-FRET Assay Max Response (RORγ-LBD): **** (a value greater than 200)

Compound: COc1cc(S(=O)(=O)N2c3cc(/C=C(\C)c4c(F)cccc4Cl)ccc3O[C@@H](CNC(C)=O)[C@H]2C)ccc1F [Example 137]
- EC50 (Gal4-RORγ-LBD): < 500 nM
- Gal4-RORγ Assay Max Response (Gal4-RORγ-LBD): ** (a value in the range of greater than 90 to 150)
- EC50 (RORγ-LBD): < 500 nM
- TR-FRET Assay Max Response (RORγ-LBD): **** (a value greater than 200)

Compound: COc1cc(S(=O)(=O)N2c3cc(OCc4c(F)cccc4Cl)ccc3C=C(CO)[C@H]2C)ccc1F [Example 138, (R)-(7-((2-Chloro-6-fluorobenzyl)oxy)-1-((4-fluoro-3-methoxyphenyl)sulfonyl)-2-methyl-1,2-dihydroquinolin-3-yl)methanol]
- EC50 (Gal4-RORγ-LBD): < 500 nM
- Gal4-RORγ Assay Max Response (Gal4-RORγ-LBD): *** (a value in the range of greater than 150 to 200)
- EC50 (RORγ-LBD): < 500 nM
- TR-FRET Assay Max Response (RORγ-LBD): ** (a value in the range of greater than 90 to 150)

Compound: COc1cc(S(=O)(=O)N2c3cc(OCc4c(F)cccc4Cl)ccc3C=C(CN)[C@H]2C)ccc1F [Example 139, (R)-(7-((2-Chloro-6-fluorobenzyl)oxy)-1-((4-fluoro-3-methoxyphenyl)sulfonyl)-2-methyl-1,2-dihydroquinolin-3-yl)methanamine]
- EC50 (Gal4-RORγ-LBD): 500 to 5000 nM
- EC50 (RORγ-LBD): < 500 nM

Compound: COc1cc(S(=O)(=O)N2c3cc(OCc4c(F)cccc4Cl)ccc3C=C(CNC(C)=O)[C@H]2C)ccc1F [Example 140, (R)—N-((7-((2-Chloro-6-fluorobenzyl)oxy)-1-((4-fluoro-3-methoxyphenyl)sulfonyl)-2-methyl-1,2-dihydroquinolin-3-yl)methyl)acetamide]
- EC50 (Gal4-RORγ-LBD): < 500 nM
- EC50 (RORγ-LBD): < 500 nM

Compound: C/C(=C\c1ccc2c(c1)N(S(=O)(=O)c1cccc(C(F)(F)F)c1)[C@H](C)[C@H](C(=O)O)C2)c1c(F)cccc1Cl [Example 142, (2R,3R)-7-((E)-2-(2-Chloro-6-fluorophenyl)prop-1-en-1-yl)-2-methyl-1-((3-(trifluoromethyl)phenyl)sulfonyl)-1,2,3,4-tetrahydroquinoline-3-carboxylate]
- EC50 (Gal4-RORγ-LBD): < 500 nM
- Gal4-RORγ Assay Max Response (Gal4-RORγ-LBD): ** (a value in the range of greater than 90 to 150)
- EC50 (RORγ-LBD): < 500 nM
- TR-FRET Assay Max Response (RORγ-LBD): ** (a value in the range of greater than 90 to 150)

Compound: C/C(=C\c1ccc2c(c1)N(S(=O)(=O)c1cccc(C(F)(F)F)c1)[C@H](C)[C@H](NC(=O)N(C)C)C2)c1c(F)cccc1Cl [Example 146, 3-((2R,3R)-7-((E)-2-(2-Chloro-6-fluorophenyl)prop-1-en-1-yl)-2-methyl-1-((3-(trifluoromethyl)phenyl)sulfonyl)-1,2,3,4-tetrahydroquinolin-3-yl)-1,1-dimethylurea]
- EC50 (Gal4-RORγ-LBD): > 10000 nM
- EC50 (RORγ-LBD): < 500 nM
- TR-FRET Assay Max Response (RORγ-LBD): ** (a value in the range of greater than 90 to 150)

Compound: C/C(=C\c1ccc2c(c1)N(S(=O)(=O)c1cccc(C(F)(F)F)c1)[C@H](C)[C@H](N)C2)c1c(F)cccc1Cl [Example 147, (2R,3R)-7-((E)-2-(2-Chloro-6-fluorophenyl)prop-1-en-1-yl)-2-methyl-1-((3-(trifluoromethyl)phenyl)sulfonyl)-1,2,3,4-tetrahydroquinolin-3-amine]
- EC50 (Gal4-RORγ-LBD): 500 to 5000 nM
- Gal4-RORγ Assay Max Response (Gal4-RORγ-LBD): ** (a value in the range of greater than 90 to 150)
- EC50 (RORγ-LBD): < 500 nM
- TR-FRET Assay Max Response (RORγ-LBD): *** (a value in the range of greater than 150 to 200)

Compound: COc1cc(S(=O)(=O)N2c3cc(OCc4c(F)cccc4Cl)ccc3C[C@@H](CNC(C)=O)[C@H]2C)ccc1F [Example 152, N-(((2R,3S)-7-((2-Chloro-6-fluorobenzyl)oxy)-1-((4-fluoro-3-methoxyphenyl)sulfonyl)-2-methyl-1,2,3,4-tetrahydroquinolin-3-yl)methyl)acetamide]
- EC50 (Gal4-RORγ-LBD): < 500 nM
- Gal4-RORγ Assay Max Response (Gal4-RORγ-LBD): ** (a value in the range of greater than 90 to 150)
- EC50 (RORγ-LBD): < 500 nM
- TR-FRET Assay Max Response (RORγ-LBD): *** (a value in the range of greater than 150 to 200)

Compound: COC(=O)C(C)(C)C[C@@H]1Cc2ccc(/C=C/c3c(F)cccc3Cl)cc2N(S(=O)(=O)c2ccc(F)c(OC)c2)C1 [Example 153, Methyl (S,E)-3-(7-(2-chloro-6-fluorostyryl)-1-((4-fluoro-3-methoxyphenyl)sulfonyl)-1,2,3,4-tetrahydroquinolin-3-yl)-2,2-dimethylpropanoate]
- EC50 (Gal4-RORγ-LBD): > 10000 nM
- Gal4-RORγ Assay Max Response (Gal4-RORγ-LBD): * (a value in the range of 30 to 90)
- EC50 (RORγ-LBD): < 500 nM
- TR-FRET Assay Max Response (RORγ-LBD): *** (a value in the range of greater than 150 to 200)

Compound: COc1cc(S(=O)(=O)N2C[C@H](CC(C)(C)C(=O)O)Cc3ccc(/C=C/c4c(F)cccc4Cl)cc32)ccc1F [Example 154A]
- EC50 (Gal4-RORγ-LBD): < 500 nM
- Gal4-RORγ Assay Max Response (Gal4-RORγ-LBD): * (a value in the range of 30 to 90)
- EC50 (RORγ-LBD): < 500 nM
- TR-FRET Assay Max Response (RORγ-LBD): ** (a value in the range of greater than 90 to 150)

Compound: COc1cc(S(=O)(=O)N2C[C@H](CC(C)(C)C(=O)O)Cc3ccc(/C=C(\C)c4c(F)cccc4Cl)cc32)ccc1F [Example 154C, (S,E)-3-(7-(2-(2-chloro-6-fluorophenyl)prop-1-en-1-yl)-1-((4-fluoro-3-methoxyphenyl)sulfonyl)-1,2,3,4-tetrahydroquinolin-3-yl)-2,2-dimethylpropanoic acid]
- EC50 (Gal4-RORγ-LBD): 500 to 5000 nM
- Gal4-RORγ Assay Max Response (Gal4-RORγ-LBD): ** (a value in the range of greater than 90 to 150)
- EC50 (RORγ-LBD): < 500 nM
- TR-FRET Assay Max Response (RORγ-LBD): ** (a value in the range of greater than 90 to 150)
